Assay results published in patent US10689415B2, “Conjugates of RGD peptides and (bacterio)chlorophyll photosensitizers” (YEDA RESEARCH AND DEVELOPMENT COMPANY LTD., priority 2006, dated 2020).
Where no end group is shown, it is not given here.

Legend:
[1] = Solubilization for in vitro experiments (water solubility); format: physicochemical
Experimental: Compound 24 was dissolved in 100% DMSO before use and diluted in saline to a final DMSO concentration of 5% v/v.

CT26luc colon cancer = experiment: In vivo PDT (VTP) of CT26luc colon cancer; design: species or system CD-1 nude male mice; conditions: i.v. injected and illuminated after 8 hours
Experimental: CD-1 nude male mice bearing the different tumor xenografts were anesthetized and 24 (5-24 mg/kg body weight) or 8 (9 mg/kg body weight) were i.v. injected via the tail vein. The tumors were trans-cutaneously illuminated after 3.5, 6, 8, 12 and 24 hours for 5-30 min at light doses of 30-360 J/cm^2. Intensity of illumination: 100-200 mW/cm^2. After treatment, the mice were returned to the cage. The mice were considered cured if tumor free for 90 days after treatment. Mice were euthanized when the tumor diameter reached 15 mm. […] (5) Mixture of 8 and cycloRGDfK: the mice were i.v. injected with mixture of 8 with cycloRGDfK and illuminated after indicated time point. (6) cycloRGDfK alone: the mice were i.v. injected with cycloRGDfK and illuminated after indicated time point. Images were taken at indicated time post PDT.
FIGS. 32A-32F show the therapeutic results of applying 15 mg/kg, 10 min illumination (60 J/cm^2), 8 hours post injection of conjugate 24 to mice bearing CT26luc tumors (bolded protocol in Table 5). 32A—conjugate 24 was i.v. injected 15 mg/kg, 10 min illumination (60 J/cm^2) 8 hours post injection; 32B—overlaid images taken after i.p. injection of luciferin to the mouse described in 32A, using the IVIS system. The first image is black and white, which gives the photograph of the animal. The second image is color overlay of the emitted photon data. […]

rat C6 glioma xenografts = experiment: Whole-body NIR fluorescence imaging, rat C6 glioma xenografts; format: in vivo, CD-1 nude male mice; conditions: 200 nmol dose, 4 to 72 hours post injection
From the text: The in Vivo Optical Imaging System (IVISR100/XFO-12, Xenogen Corp., Alameda, Calif., USA) was used to acquire fluorescent images of the RFP-expressing tumors, as well as photosensitizers associated with tissues and organs after their intravenous (i.v.) infusion to the tested animals. The field-of-view was 15 cm. Two images were taken; the first image is black and white, providing a photograph of the animal. The second image is a colored overlay of the emitted photon data, in the present case the NIR fluorescence of the compound (680-720 nm excitation filter and a 780-810 nm emission filter) or bioluminescence (560 nm) as described below. […]
Dynamic fluorescence images were acquired immediately following the injection of a conjugate of the invention and continued for approximately 2 hours. Fluorescence images were also obtained under isoflurane anesthesia for up to 72 hr after initial injection of the conjugate. […]
Dynamic fluorescence images were obtained from CD-1 nude male mice bearing rat C6 glioma xenografts. The fluorescence images were acquired using IVIS system as described in Materials and Methods. […]
Specific binding is defined as one inhibited by the unconjugated sensitizer. […] Fluorescence images of the blocked receptor xenografts with the same exposure time are illustrated in FIG. 19 on the same linear color scale to allow for a qualitative comparison. […]

H5V endothelial cells [2] = experiment: Phototoxicity assay (Neutral Red cell viability after illumination); format: cell-based, mouse; conditions: for LD50: Table 3: 10 μM BSA in medium (90 min, 37° C.)
Experimental: The light source for in vitro studies was home-built 100-W halogen lamp equipped with a high-pass filter (>650 nm, Safelight filter 1A Eastman Kodak Co., Rochester, N.Y., USA) and a 4-cm water filter. The lamp was used to illuminate (20 mW/cm^2/10 min (12 J/cm^2)) the culture plates from the bottom at room temperature in a dark room.
To determine the pigment photodynamic efficacy in vitro under standard conditions, cells were cultured in 96-well plates and preincubated for 15 or 90 min at 37° C. or 4° C., according to the indicated experiment protocol, with 0-25 μM conjugated or non-conjugated photosensitizer in different media conditions (culture medium DMEM/F12; 10% FCS in medium or 10 μM BSA in medium) in the absence or presence of excess free peptide (100 fold up to 1 mM). The cells were washed and illuminated (20 mW/cm^2 for 10 min). Plates were placed back in the culture incubator for 24 h. Cell survival was determined using Neutral Red cell viability assay. Cell survival was calculated as the percent of the dye accumulated in the untreated controls. […] Three kinds of controls were used: (i) light control: cells illuminated in the absence of pigments; (ii) dark control: cells treated with pigments but kept in the dark; and (iii) untreated cells that were kept in the dark.
Following photosensitization and a 24-h incubation period (37° C.), cell survival was determined by Neutral Red (Fluka Chemie, Buchs, Switzerland) accumulation. After subtraction of assay blanks, net optical density (570 nm) was computed as the average value of triplicates determinations. Cell survival was calculated as the percent of the dye accumulated in the untreated controls.
H5V cells were incubated for 90 min at 37° C. with 0-25 μM of conjugate 23 or compound 10 in different media conditions, illuminated and their survival was determined using Neutral Red viability assay as described in Materials and Methods.
Targeted phototoxicity is defined as one inhibited by the free ligand. Thus, further experiments attempted to block phototoxicity by administration of the free cycloRGDfK, which competes for the cellular binding of conjugate 23. H5V cells were incubated for 90 min at 37° C. with 0-25 μM of compound 10 or conjugate 23 in different media (10% FCS in medium or 10 μM BSA in medium) in the absence or presence of free excess cycloRGDfK (100-fold up to 1 mM). The cells were illuminated and cell survival was determined using Neutral Red viability assay, as described above.
In order to test the endocytosis theory and since the endocytic process is time- and temperature-dependent, H5V cells were incubated at 37° C. and 4° C. for 15 min with 0-20 μM of conjugate 23 in medium containing 10% FCS, in the presence or absence of excess cycloRGDfK (100-fold up to 1 mM). Cells were illuminated and their survival was determined as described above.
The phototoxicity of conjugate 24 was determined by monitoring the survival of cultured H5V endothelial cells following PDT. H5V cells were incubated for 2 hours at 37° C. with 0-25 μM conjugate 24 in culture medium DMEM/F12 with 10% FCS. The cells were illuminated and their survival was determined as described above.
Cells were incubated for 90 min at 37° C. in the presence of 0-20 μM conjugate 11 or compound 8 in 10 μM BSA in medium, illuminated and their survival was determined as described above.

[3] = system: tumor grafts of mouse CT26luc colon carcinoma; experiment: Biodistribution (Pd by ICP-MS) in mice with CT26luc colon carcinoma grafts; format: in vivo, CD1 nude male mice; conditions: 8 hours post injection
Experimental: Anesthetized mice were i.v. injected (tail vein) with the different photosensitizer (pigment) conjugates (control group: untreated). The mice were sacrificed at indicated time points and samples of the indicated organs and tissues (blood, tumor, intestine, liver, spleen, kidneys, testies, heart, lung, brain, skin, muscle and fat) were placed in pre-weighted vials and immediately frozen and stored at −20° in the dark until analyzed. Three methods were used for sample preparation: (1) Each sample was thawed and homogenized in DDW (1:10 w/v). Aliquots of the homogenate (500 μl) were lyophilized in Eppendorf test tubes. […] Pd concentrations were determined by ICP-MS. According to method (3), the supernatants were diluted in methanol by a factor of two and the drug concentration was determined by fluorescence measurements (Varian-Cary Eclipse spectrofluorimeter, Palo Alto, Calif., USA) at 750 nm (peak values). Drug concentrations were interpolated from a fluorescence calibration curve, based on predetermined drug concentrations using absorption spectroscopy. […]
The conjugates of the invention are potential drug carriers. […] In order to quantify the conjugate levels in target tissues, Ion Coupled Plasma-Mass Spectroscopy (ICP-MS) was used for tracing the central M atom (e.g., Pd, Cu) in the target organ. […]

[4] = target: isolated αvβ3 integrin receptor (Homo sapiens, UniProt P05106+P06756); experiment: Solid-phase receptor assay, Eu-RGD-4C binding competed by RGD-4C; conditions: 100 μM of RGD-4C; highest attenuation
Experimental: The binding of Eu-RGD-4C to isolated αvβ3 integrin receptor was determined using time-resolved fluorometry. Each well of a microtiter plate (Nunc MaxiSorb) was coated with 50 μl of purified receptor (1 μg/ml in PBS) by shaking at 4° C. overnight. The receptor solution was then removed, and each well was blocked with 200 μl of milk (1% w/v milk powder in PBS, 1 hr, room temperature). The plate was then washed with 200 μl of PBS once, and incubated for 1 h at 37° C. with increasing concentrations of RGD-4C in the presence of constant amount of Eu-RGD-4C (10 million F.U./well). The ligand/competitor solution was removed and each well was washed three times with 200 μl PBS. Enhancement solution was added (200 μl/well) to release the chelated Eu. […] Under these experimental conditions, 100 μM of RGD-4C reduced by 50% Eu-RGD-4C binding to the isolated receptor. This value represents the highest attenuation of the Eu-RGD-4C binding, even at RGD-4C highest concentrations.

HUVEC = experiment: Cell detachment (rounding) assay, HUVEC; format: cell-based, human; conditions: 100 μM RGD-4C; recovery after 24 h in fresh medium
Experimental: (§1) H5V cells were cultured as monolayers in 3-cm dish for 24-48 h, and further incubated for 1 h with 100 μM RGD-4C at 4° C. or 37° C. The cells were washed once and re-incubated for three hours with fresh culture medium at 37° C. In the same fashion, HUVEC were cultured as monolayers in 6-well plate pre-coated with gelatin for 48 h, and incubated for 1 h with 100 μM RGD-4C at 37° C. The cells were washed once and re-incubated for 24 h with fresh culture medium at 37° C. The morphological changes of the cells were documented using light microscopy.

αvβ5 and αvβ3 integrins = conditions: read-out: affinity constant; reports by others; cited from earlier work
H5V endothelial cells [5] = experiment: Cell detachment (rounding) assay, H5V; format: cell-based, mouse
Experimental: as §1
The biological effect of RGD-4C binding was characterized in H5V cells and Human Umbilical Vein Endothelial Cells (HUVEC) using the cell-rounding assay described in Materials and Methods. The morphological changes of the cells were documented using light microscopy. […] This effect was reversible as the cells recovered following 3 h re-incubation with fresh culture medium (8% rounded cells in dishes with previous presence of RGD-4C versus 6% in the absence of RGD-4C).

isolated αvβ3 integrin receptor, sequence (P06756 31-889 limits assumed): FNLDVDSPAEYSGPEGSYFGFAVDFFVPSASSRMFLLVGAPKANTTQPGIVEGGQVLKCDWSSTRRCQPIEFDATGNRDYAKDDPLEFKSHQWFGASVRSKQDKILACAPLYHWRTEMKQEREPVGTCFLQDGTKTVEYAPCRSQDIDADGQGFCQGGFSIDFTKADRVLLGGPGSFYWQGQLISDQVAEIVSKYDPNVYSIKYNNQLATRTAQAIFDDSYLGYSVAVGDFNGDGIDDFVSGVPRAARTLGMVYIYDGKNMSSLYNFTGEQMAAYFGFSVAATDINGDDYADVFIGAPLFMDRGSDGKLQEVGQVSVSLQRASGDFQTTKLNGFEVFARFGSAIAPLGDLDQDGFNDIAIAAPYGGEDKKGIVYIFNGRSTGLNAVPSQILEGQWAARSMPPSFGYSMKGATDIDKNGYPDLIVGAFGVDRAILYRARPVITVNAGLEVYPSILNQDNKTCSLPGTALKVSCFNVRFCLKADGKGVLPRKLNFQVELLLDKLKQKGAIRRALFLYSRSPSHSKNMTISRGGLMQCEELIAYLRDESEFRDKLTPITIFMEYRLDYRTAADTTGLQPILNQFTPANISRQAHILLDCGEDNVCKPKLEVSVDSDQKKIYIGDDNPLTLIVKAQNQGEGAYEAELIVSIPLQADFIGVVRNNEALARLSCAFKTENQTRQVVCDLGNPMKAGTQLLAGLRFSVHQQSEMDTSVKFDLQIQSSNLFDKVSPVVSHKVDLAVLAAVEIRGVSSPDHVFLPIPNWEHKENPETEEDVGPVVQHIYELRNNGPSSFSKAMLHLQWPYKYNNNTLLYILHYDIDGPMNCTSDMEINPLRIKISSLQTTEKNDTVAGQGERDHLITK
isolated αvβ3 integrin receptor, sequence (P06756 891-1048 limits assumed): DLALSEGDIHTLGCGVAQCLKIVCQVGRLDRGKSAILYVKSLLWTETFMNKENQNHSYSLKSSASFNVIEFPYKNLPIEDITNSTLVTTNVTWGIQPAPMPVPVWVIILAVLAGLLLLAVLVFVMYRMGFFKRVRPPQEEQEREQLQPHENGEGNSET
isolated αvβ3 integrin receptor, sequence (P05106 27-788): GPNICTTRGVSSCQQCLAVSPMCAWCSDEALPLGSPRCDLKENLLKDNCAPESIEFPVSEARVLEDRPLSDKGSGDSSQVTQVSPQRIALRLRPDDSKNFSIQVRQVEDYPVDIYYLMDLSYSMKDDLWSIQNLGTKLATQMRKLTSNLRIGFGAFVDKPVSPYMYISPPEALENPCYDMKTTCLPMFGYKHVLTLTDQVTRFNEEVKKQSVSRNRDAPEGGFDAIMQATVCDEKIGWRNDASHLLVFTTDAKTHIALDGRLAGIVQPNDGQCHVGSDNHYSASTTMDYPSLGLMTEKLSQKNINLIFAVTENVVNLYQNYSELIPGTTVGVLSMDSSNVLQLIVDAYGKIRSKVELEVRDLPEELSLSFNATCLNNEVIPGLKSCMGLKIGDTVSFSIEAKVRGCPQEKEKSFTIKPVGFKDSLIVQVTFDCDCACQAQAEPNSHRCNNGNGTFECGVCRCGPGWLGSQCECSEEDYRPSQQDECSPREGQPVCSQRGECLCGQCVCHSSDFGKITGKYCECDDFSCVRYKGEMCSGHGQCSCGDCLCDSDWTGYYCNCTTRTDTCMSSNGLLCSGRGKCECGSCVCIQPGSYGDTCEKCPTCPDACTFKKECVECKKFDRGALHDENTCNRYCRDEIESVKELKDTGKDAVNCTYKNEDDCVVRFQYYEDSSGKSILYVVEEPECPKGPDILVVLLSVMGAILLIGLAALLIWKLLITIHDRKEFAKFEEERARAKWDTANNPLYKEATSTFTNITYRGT

Substance | water solubility [1] | PDT effect of controls (CT26luc colon cancer) | whole-body fluorescence distribution (rat C6 glioma xenografts) | phototoxic effects (H5V endothelial cells [2]; 90 min, 37° C., 10 μM BSA in medium, 0-20 μM) | LD50 (H5V endothelial cells [2]) [µM] | LD50 (H5V endothelial cells [2]; with free peptide excess (RGD-4C 1 mM)) [µM] | concentrations in the tumor tissue and blood [3] | reduction of Eu-RGD-4C binding to the isolated receptor [4] [%] | HUVEC detachment (HUVEC) | Kd (αvβ5 and αvβ3 integrins) [nM] | rounded cells (cell detachment from the dish) (H5V endothelial cells [5]; 100 μM RGD-4C, n=200) [%] | rounded cells after 3 h re-incubation with fresh culture medium (H5V endothelial cells [5]; previous presence of RGD-4C, 37° C.) [%]
Palladium 3^1-oxo-15-methoxycarbonylmethyl-Rhodobacteriochlorin 13^1-(2-sulfoethyl)amide potassium salt [Compound 8, reference compound] | Water-soluble | no PDT effect | no specific signal could be seen | light- and drug concentration-dependent | 1.8 to 2 | 2 | – | – | – | – | – | –
Palladium 3^1-oxo-15-methoxycarbonylmethyl-Rhodobacteriochlorin 13^1-(2-sulfoethyl)amide-17^3-(cycloRADfK)amide potassium salt [Conjugate 42] | – | – | – | – | – | – | quite the same | – | – | – | – | –
the cyclic nonapeptide CDCRGDCFC-NH2 (disulfide (positions not given here)) [RGD-4C] | Water insoluble | – | – | – | – | – | – | 50 | induced HUVEC detachment from the dish in a reversible manner | ~100 | 99 | 8
